# Data taken from patent publication US4956376A, “Tetrazole carboxylic acids and esters and inhibition of blood platelet aggregation therewith” (Bristol-Myers Squibb Company, priority 1990, dated 1990).
# Like-named read-outs stand apart in the source and are kept apart here.
# Test system: human platelet aggregation
# Assay type: cell-based
# Conditions: human platelet rich plasma, ADP 0.5 mcg/mL
# [1] = Table 2, read-out: Inhibition of Human Platelet Aggregation of Formula II Compounds (IC50) Vs ADP
# [2] = Table 1, read-out: Inhibition of Human Platelet Aggregation of Formula I Compounds (IC50) vs. ADP
# Description: The aggregometer method of Born, C. […] Clin. Med. 1964, 64, 548-599 was used to assess the in vitro activity of the various compounds as to the inhibition of adenosine diphosphate (ADP) and collagen-induced platelet aggregation. The human volunteer donor's arm is cleansed with 70% ethyl alcohol. A sterile 20 ml syringe and needle are used to withdraw 20 ml of blood. The blood is immediately added to a test tube containing 3.8% sodium citrate to prevent clotting (1 part citrate to 9 parts blood).
# Platelet rich plasma (PRP) was separated by centrifugation for 10 minutes at 1000 rpm (140 xg) from citrated (3.8%) human blood. All glassware used for preparation of PRP is silicon treated. ADP in final concentration of 0.5 mcg/mL or 0.05 mL of a collagen suspension prepared according to the method described by Evans, G., et al., J. Exp. Med., 1968, 128, 877-894 was used to induce aggregation. The various compounds tested were dissolved in dimethylsulfoxide (DMSO) so that 5 mcl added to the platelet rich plasma would yield the desired test concentration. Vehicle control trials were done and compared with aggregation induced in platelet rich plasma containing various concentrations of the test compounds. Dose response curves were obtained and Inhibitor Concentration (IC50) values calculated.
Compound,IC50 [1],IC50 [2]
"COC(=O)COc1cccc(CCn2nnc(C(c3ccccc3)c3ccccc3)n2)c1 [Example 3, Methyl [3-[2-[5-(diphenylmethyl)-2H-tetrazol-2-yl]ethyl]-phenoxy]acetate]",0.9 mg/L,–
"COC(=O)CCCCCCCCn1nnc(C(c2ccccc2)c2ccccc2)n1 [Example 1, Methyl 5-(diphenylmethyl)-2H-tetrazole-2-nonanoate]",–,> 32 mg/L
"O=C(O)COc1cccc(CCn2nnc(C(c3ccccc3)c3ccccc3)n2)c1 [Example 4, [3-[2-[5-(Diphenylmethyl)-2H-tetrazol-2-yl]ethyl]phenoxy]-acetic Acid]",1.4 mg/L,–
"O=C(O)CCCCCCCCn1nnc(C(c2ccccc2)c2ccccc2)n1 [Example 2, 5-(Diphenylmethyl)-2H-tetrazole-1-nonanoic acid]",–,4.2 mg/L
